According to patent publication US9457033B2, “Steroid alkaloids and uses thereof as antimicrobial agents against electron transport-deficient microbes and as potentiators for antimicrobial agents against pathogenic bacteria” (priority 2011, dated 2016):
≈ marks a conversion by molar mass, not a printed value.

Tests used:
[1] = tested on: S. aureus SHY97-3906; experiment: MIC, microdilution in CAMHB 24 h; type: cell-based, Staphylococcus aureus; conditions: SHY97-3906; Cow (mastitis)
[2] = tested on: S. aureus ATCC 43300; experiment: MIC, microdilution in CAMHB 24 h; type: cell-based, Staphylococcus aureus; conditions: ATCC 43300; Human (HA); MRSA
[3] = tested on: S. aureus ATCC 29213; experiment: MIC, microdilution in CAMHB 24 h, with or without tomatidine/compound; type: cell-based, Staphylococcus aureus; conditions: ATCC 29213
[4] = tested on: S. aureus Mu50; experiment: MIC, microdilution in CAMHB 24 h; type: cell-based, Staphylococcus aureus; conditions: Mu50; Human (SSTI); MRSA, VISA
[5] = tested on: S. aureus CF07-L (normal strain); experiment: MIC, microdilution in BHI 48 h (Examples 1, 3); type: cell-based, Staphylococcus aureus
[6] = tested on: S. aureus N315; experiment: microbe, parasite or virus in culture; type: cell-based, Staphylococcus aureus; conditions: N315; Human (HA); MRSA
[7] = tested on: S. aureus CF1A-L; experiment: MIC, microdilution in CAMHB 24 h; type: cell-based, Staphylococcus aureus; conditions: CF1A-L; Human (CF lungs)
[8] = tested on: S. aureus Newbould; experiment: MIC, microdilution in CAMHB 24 h; type: cell-based, Staphylococcus aureus; conditions: Newbould; Cow (mastitis)
[9] = tested on: S. aureus CF2A-L; experiment: MIC, microdilution in CAMHB 24 h; type: cell-based; conditions: CF2A-L; Human (CF lungs)
[10] = tested on: S. aureus CF4B-L; experiment: MIC, microdilution in CAMHB 24 h; type: cell-based, Staphylococcus aureus; conditions: CF4B-L; Human (CF lungs)
[11] = tested on: S. aureus CF1A-L (normal strain); experiment: MIC, microdilution in BHI 48 h; type: cell-based, Staphylococcus aureus; conditions: CF1A-L, normal strain
[12] = tested on: S. aureus MA078038; experiment: MIC, microdilution in CAMHB 24 h; type: cell-based, Staphylococcus aureus; conditions: MA078038; Human (CA); MRSA
[13] = tested on: S. aureus CF7A-L; experiment: MIC, microdilution in CAMHB 24 h; type: cell-based, Staphylococcus aureus; conditions: CF7A-L; Human (CF lungs); MRSA
[14] = tested on: S. aureus CF8E-L; experiment: MIC, microdilution in CAMHB 24 h; type: cell-based, Staphylococcus aureus; conditions: CF8E-L; Human (CF lungs)
[15] = tested on: S. aureus ATCC BAA-41; experiment: MIC, microdilution in CAMHB 24 h; type: cell-based, Staphylococcus aureus; conditions: ATCC BAA-41; Human (HA); MRSA
[16] = tested on: S. aureus SCV NewbouldΔhemB; experiment: MIC, microdilution in BHI 48 h; type: cell-based, Staphylococcus aureus; conditions: NewbouldΔhemB, SCV
[17] = tested on: S. aureus CF07-L; experiment: MIC, microdilution in CAMHB 24 h; type: cell-based, Staphylococcus aureus; conditions: CF07-L; Human (CF lungs)
[18] = tested on: S. aureus CF9A-L; experiment: MIC, microdilution in CAMHB 24 h; type: cell-based, Staphylococcus aureus; conditions: CF9A-L; Human (CF lungs); MRSA
[19] = tested on: S. aureus ATCC 29213; experiment: MIC, microdilution in BHI 48 h (Examples 1, 3); type: cell-based, Staphylococcus aureus
[20] = tested on: S. aureus CF35A-L; experiment: MIC, microdilution in CAMHB 24 h; type: cell-based, Staphylococcus aureus; conditions: CF35A-L; Human (CF lungs); MRSA
[21] = tested on: S. aureus Sa220c; experiment: MIC, microdilution in CAMHB 24 h; type: cell-based, Staphylococcus aureus; conditions: Sa220c; Human (SSTI); MRSA
[22] = tested on: S. aureus Newbould (normal strain); experiment: MIC, microdilution in BHI 48 h; type: cell-based, Staphylococcus aureus; conditions: Newbould, normal strain
[23] = tested on: S. aureus MRSA COL; experiment: MIC, microdilution in CAMHB 24 h; type: cell-based, Staphylococcus aureus; conditions: MRSA COL; Human (SSTI)
[24] = tested on: S. aureus 8325-4; experiment: MIC, microdilution in CAMHB 24 h; type: cell-based, Staphylococcus aureus; conditions: 8325-4; Laboratory strain
[25] = tested on: S. aureus Newman; experiment: MIC, microdilution in CAMHB 24 h; type: cell-based, Staphylococcus aureus; conditions: Newman; Human (Osteo)
[26] = tested on: S. aureus CF6B-L; experiment: MIC, microdilution in CAMHB 24 h; type: cell-based, Staphylococcus aureus; conditions: CF6B-L; Human (CF lungs)
[27] = tested on: S. aureus Sa228c; experiment: MIC, microdilution in CAMHB 24 h; type: cell-based, Staphylococcus aureus; conditions: Sa228c; Human (SSTI); MRSA

For `Cc1onc(-c2ccccc2)c1C(=O)N[C@@H]1C(=O)N2[C@@H]1SC(C)(C)[C@@H]2C(=O)O` [Oxacillin, oxacillin], the MIC [1] was 0.12 to 0.25 µg/mL, the MIC [2] was 16-32 (R) μg/ml and the MIC ([3]; Human (SSTI)) was 0.25 µg/mL (≈ 0.623 µM). The “MIC −TO” value ([3]; absence of tomatidine) was 0.25 µg/mL (≈ 0.623 µM), the “MIC +TO” value ([3]; presence of tomatidine at 8 μg/ml) was 0.25 µg/mL and the “Fold (−TO/+TO)” value ([3]; tomatidine at 8 μg/ml) was 1 fold. For the same compound, the MIC [4] was >64 (R) μg/ml, the MIC ([5]; CF07-L + HQNO at 20 μg/ml) was 0.06 to 0.12 µg/mL and the MIC ([5]; CF07-L, normal strain) was 0.06 to 0.12 µg/mL. The MIC ([5]; CF07-L, without HQNO) was 0.06 to 0.12 µg/mL, the MIC [6] was 8 (R) μg/ml and the MIC [7] was 0.25 to 0.5 µg/mL. The MIC [8] was 0.12 µg/mL (≈ 0.299 µM), the MIC [9] was 0.25 µg/mL (≈ 0.623 µM) and the MIC [10] was 0.5 µg/mL (≈ 1.25 µM). The MIC [11] was 0.25 µg/mL (≈ 0.623 µM), the MIC [12] was 64 (R) μg/ml and the MIC [13] was >64 (R) μg/ml. The MIC [14] was 0.125 µg/mL (≈ 0.311 µM), the MIC [15] was >64 (R) μg/ml and the MIC [16] was 0.03 to 0.06 µg/mL. The MIC [17] was 0.12 to 0.25 µg/mL, the MIC [18] was >64 (R) μg/ml and the MIC ([19]; ATCC 29213 + HQNO at 20 μg/ml) was 0.12 µg/mL. The MIC ([19]; ATCC 29213, without HQNO) was 0.12 to 0.25 µg/mL, the MIC ([19]; ATCC 29213 in BHI) was 0.12 to 0.25 µg/mL and the MIC ([19]; ATCC 29213 in MHBCA) was 0.12 to 0.5 µg/mL. The MIC [20] was >64 (R) μg/ml, the MIC [21] was 16-32 (R) μg/ml and the MIC [22] was 0.06 to 0.12 µg/mL. For the same compound, the MIC [23] was >64 (R) μg/ml, the MIC [24] was 0.12 µg/mL (≈ 0.299 µM) and the MIC [25] was 0.5 to 1 µg/mL. For the same compound, the MIC [26] was 0.25 to 1 µg/mL and the MIC [27] was >64 (R) μg/ml.
